Data taken from patent US10363239B2, “Method for inhibiting growth of cancer cells” (Pain Therapeutics, Inc., priority 2013, dated 2019).
Read-outs that look alike come from different tables or passages of the source.

Assays:
[1] = system: mu opiate receptor (MOR); test: MOR agonist activity using [35S]GTPγS binding assay in striatal membranes; assay type: biochemical; conditions: for MOR agonist activity ([35S]GTPγS binding), FLNA-Binding Compound as Agonist 1 μM + BFNA: 1 μM compound + 1 μM β-funaltrexamine
In short: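 Striatal membranes (200 μg) were preincubated 5 min at 30 °C in HEPES pH 7.5 with 100 mM NaCl, 1 mM MgCl2 and 0.5 nM [35S]GTPγS, then 5 min more with 0.1–10 μM compound. Gαo was immunoprecipitated and bound radioactivity counted by scintillation.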

[2] = molecular target: FLNA pentapeptide of SEQ ID NO: 1 (Bn-VAKGL) (Homo sapiens, UniProt P21333); test: FITC-NLX-based FLNA screening assay (inhibition of FITC-naloxone binding to Bn-VAKGL on streptavidin plates); conditions: 10 nM FITC-NLX
[3] = Series C-1, 0.1 μM compound, relative to DAMGO
[4] = Series C-1, 0.1 μM compound, [35S]GTPγS binding to Gαo, striatal membranes
[5] = Series C-1, 1 μM compound + 1 μM β-FNA
[6] = Series C-1, 1 μM compound + β-FNA, relative to DAMGO + BFNA
[7] = Series C-1, 1 μM compound, relative to DAMGO
[8] = Series C-1, 1 μM compound, [35S]GTPγS binding to Gαo, striatal membranes
[9] = FLNA-binding compound 0.01 μM, read-out: Percent Binding Inhibition
[10] = FLNA-binding compound 0.1 μM, read-out: Percent Binding Inhibition
[11] = FLNA-binding compound 1 μM, read-out: Percent Binding Inhibition
[12] = read-out: Percent Binding Inhibition, FLNA-binding compound 0.01 μM
[13] = read-out: Percent Binding Inhibition, FLNA-binding compound 0.1 μM
[14] = read-out: Percent Binding Inhibition, FLNA-binding compound 1 μM
[15] = 0.1 μM compound relative to DAMGO
[16] = 1 μM compound + BFNA relative to DAMGO + BFNA
[17] = 1 μM compound relative to DAMGO

| Structure (SMILES) | % DAMGO (0.1 μM) [1, 3] [%] | Concentration of FLNA-Binding Compound as Agonist 0.1 μM [1, 4] [%] | Concentration of FLNA-Binding Compound as Agonist 1 μM + BFNA [1, 5] [%] | % DAMGO + BFNA [1, 6] [%] | % DAMGO (1 μM) [1, 7] [%] | Concentration of FLNA-Binding Compound as Agonist 1 μM [1, 8] [%] | inhibition at 0.01 µM [2, 9] [%] | inhibition at 0.1 µM [2, 10] [%] | inhibition at 1 µM [2, 11] [%] | inhibition at 0.01 µM [2, 12] [%] | inhibition at 0.1 µM [2, 13] [%] | inhibition at 1 µM [2, 14] [%] | also measured |
| --- | --- | --- | --- | --- | --- | --- | --- | --- | --- | --- | --- | --- | --- |
| COc1ccc(S(=O)(=O)N2CCC3(OCCN3S(=O)(=O)c3ccc(OC)cc3)C3CCCCC32)cc1 (stereo not drawn) [Compound C0144M] | 108.3 | 186.3 | 125.9 | 137.9 | 90.8 | 295.9 | 46.4 | 50.7 | 55.7 | – | – | – | – |
| O=C1CN(C2CCc3ccccc3C2)C2(CCN(S(=O)(=O)c3ccccc3)CC2)N1 (stereo not drawn) [C0136M(P5)] | – | – | – | – | – | – | – | – | – | 46.7 | 55.2 | 58.2 | % DAMGO (0.1 μM) ([1]; Series C-2, 0.1 μM compound, relative to DAMGO): 93.4%; MOR agonist activity, percent [35S]GTPγS binding at the stated compound concentration ([1]; Series C-2, 0.1 μM compound, [35S]GTPγS binding to Gαo, striatal membranes): 176.8%; MOR agonist activity, percent [35S]GTPγS binding at the stated compound concentration ([1]; Series C-2, 1 μM compound + 1 μM β-FNA): 74.5%; % DAMGO + BFNA ([1]; Series C-2, 1 μM compound + β-FNA, relative to DAMGO + BFNA): 153.6%; % DAMGO (1 μM) ([1]; Series C-2, 1 μM compound, relative to DAMGO): 95.6%; MOR agonist activity, percent [35S]GTPγS binding at the stated compound concentration ([1]; Series C-2, 1 μM compound, [35S]GTPγS binding to Gαo, striatal membranes): 237.3% |
| CC1CCC(C(C)C)C(OCC(O)CN2CCCCCC2)C1 (stereo not drawn) [Compound A0013] | – | – | – | – | – | – | 30.2 | 40.2 | 47.7 | – | – | – | MOR agonist activity ([35S]GTPγS binding), FLNA-Binding Compound as Agonist 0.1 μM ([1]; 0.1 μM compound): 102.1%; % DAMGO (0.1 μM) [1, 15]: 57.8%; MOR agonist activity ([35S]GTPγS binding), FLNA-Binding Compound as Agonist 1 μM ([1]; 1 μM compound): 164.8%; MOR agonist activity ([35S]GTPγS binding), FLNA-Binding Compound as Agonist 1 μM + BFNA [1]: 86.1%; % DAMGO + BFNA [1, 16]: 131.1%; % DAMGO (1 μM) [1, 17]: 63.6% |
| CCCCc1ccc(S(=O)(=O)N2CCC3(CC2)OCCN3S(=O)(=O)c2ccc(CCCC)cc2)cc1 [Compound C0030] | 96.0 | 150.3 | 95.0 | 291.4 | 98.0 | 226.8 | 37.4 | 45.4 | 56 | – | – | – | – |
| O=S(=O)(c1ccc(C(F)(F)F)cc1)N1CCC2(CC1)OCCN2S(=O)(=O)c1ccc(C(F)(F)F)cc1 [Compound C0012] | 54.8 | 96.8 | 184.4 | 280.7 | 86.7 | 224.8 | – | – | – | 26.3 | 39.5 | 46.4 | – |
| CC1CN(CC(O)COc2cc(F)cc(F)c2)CC(C)O1 (stereo not drawn) [Compound A0046] | – | – | – | – | – | – | 34.3 | 38.4 | 40.9 | – | – | – | MOR agonist activity ([35S]GTPγS binding), FLNA-Binding Compound as Agonist 0.1 μM ([1]; 0.1 μM compound): 257.5%; % DAMGO (0.1 μM) [1, 15]: 131.2%; MOR agonist activity ([35S]GTPγS binding), FLNA-Binding Compound as Agonist 1 μM ([1]; 1 μM compound): 354.1%; MOR agonist activity ([35S]GTPγS binding), FLNA-Binding Compound as Agonist 1 μM + BFNA [1]: 140.0%; % DAMGO + BFNA [1, 16]: 189.4%; % DAMGO (1 μM) [1, 17]: 128.3% |
| CNc1ccc(S(=O)(=O)N2CCC3(CC2)OCCN3S(=O)(=O)c2ccc(NC)cc2)cc1 [Compound C0024] | 92.8 | 178.4 | 59.3 | 135.1 | 84.1 | 229.6 | 37.9 | 46.4 | 50.4 | – | – | – | – |
| COc1c2c(cc3c1C(CC(O)CCc1ccccc1)[N+](C)(C)CC3)OCO2 (stereo not drawn) [Compound B0052] | – | – | – | – | – | – | – | – | – | 30.2 | 39.1 | 44.3 | % DAMGO (0.1 μM) ([1]; Series B, 0.1 μM compound, relative to DAMGO): 58.1%; MOR agonist activity, percent [35S]GTPγS binding at the stated compound concentration ([1]; Series B, 0.1 μM compound, [35S]GTPγS binding to Gαo, striatal membranes): 98.2%; MOR agonist activity, percent [35S]GTPγS binding at the stated compound concentration ([1]; Series B, 1 μM compound + 1 μM β-FNA): 40.9%; % DAMGO + BFNA ([1]; Series B, 1 μM compound + β-FNA, relative to DAMGO + BFNA): 246.4%; % DAMGO (1 μM) ([1]; Series B, 1 μM compound, relative to DAMGO): 69.3%; MOR agonist activity, percent [35S]GTPγS binding at the stated compound concentration ([1]; Series B, 1 μM compound, [35S]GTPγS binding to Gαo, striatal membranes): 151.7% |
